This is an account of results in the OligoGym collection.

HELM strings list units from the 5' end as sugar, base in round brackets, then linkage (d deoxyribose, r ribose, m 2'-O-methyl, p phosphodiester). Strings are as the collection lists them; they lack the last nucleoside at the 3' end of the tested compound. [moe] = 2'-O-(2-methoxyethyl) (MOE); [sp] = phosphorothioate linkage; [m5C] = 5-methylcytosine

This series concerns the target UBE3A-ATS. Briefly: mouse, dose not given. The note with it: ASO.
In turn, “RNA1{[moe](G)[sp].[moe](T)p.[moe](A)p.[moe](T)p.[moe](A)p.d(T)[sp].d(T)[sp].d(G)[sp].d(T)[sp].d(A)[sp].d(G)[sp].d([m5C])[sp].d(T)[sp].d(T)[sp].d(T)[sp].[moe](T)p.[moe]([m5C])p.[moe](T)[sp].[moe](A)}$$$$ (last 3' nucleoside missing)” returned a 3 h FOB score of 6.2 score 0-7.

“RNA1{[moe](G)[sp].[moe]([m5C])p.[moe](A)p.[moe](T)p.[moe](A)p.[moe]([m5C])p.d([m5C])[sp].d([m5C])[sp].d(A)[sp].d(G)[sp].d(G)[sp].d(G)[sp].d(T)[sp].d(A)[sp].d(G)[sp].d(G)[sp].[moe](A)p.[moe](T)[sp].[moe](T)}$$$$ (last 3' nucleoside missing)”: the 3 h FOB score is 1 score 0-7.

Substance “RNA1{[moe](T)[sp].[moe](T)p.[moe](T)p.[moe](T)p.[moe](T)p.d([m5C])[sp].d([m5C])[sp].d(A)[sp].d(T)[sp].d(T)[sp].d(T)[sp].d(T)[sp].d(T)[sp].d([m5C])[sp].d(T)[sp].[moe]([m5C])p.[moe](T)p.[moe](T)[sp].[moe](A)}$$$$ (last 3' nucleoside missing)” showed a 3 h FOB score of 1.3 score 0-7.

Consider “RNA1{[moe]([m5C])[sp].[moe](A)p.[moe](T)p.[moe](G)p.[moe](T)p.d(G)[sp].d(G)[sp].d(G)[sp].d([m5C])[sp].d([m5C])[sp].d(T)[sp].d([m5C])[sp].d(T)[sp].d(A)[sp].d(T)[sp].[moe](T)p.[moe](A)p.[moe](A)[sp].[moe](G)}$$$$ (last 3' nucleoside missing)”, for which the 3 h FOB score came out at 4 score 0-7.

For “RNA1{[moe](G)[sp].[moe]([m5C])p.[moe](T)p.[moe](G)p.[moe](T)p.d(A)[sp].d(A)[sp].d(G)[sp].d(T)[sp].d(A)[sp].d(T)[sp].d(A)[sp].d(G)[sp].d(A)[sp].d(T)[sp].[moe](G)p.[moe]([m5C])p.[moe]([m5C])[sp].[moe](T)}$$$$ (last 3' nucleoside missing)”, the 3 h FOB score was 2 score 0-7.

As for “RNA1{[moe]([m5C])[sp].[moe](T)p.[moe](G)p.[moe]([m5C])p.[moe](T)p.d(T)[sp].d([m5C])[sp].d(A)[sp].d([m5C])[sp].d([m5C])[sp].d(A)[sp].d(T)[sp].d(T)[sp].d(T)[sp].d(T)[sp].[moe](G)p.[moe](A)p.[moe]([m5C])[sp].[moe]([m5C])}$$$$ (last 3' nucleoside missing)”, the 3 h FOB score amounted to 1.3 score 0-7.

With “RNA1{[moe](T)[sp].[moe](T)p.[moe](A)p.[moe]([m5C])p.[moe](T)p.d([m5C])[sp].d([m5C])[sp].d(T)[sp].d([m5C])[sp].d(T)[sp].d(G)[sp].d(G)[sp].d(T)[sp].d(G)[sp].d(T)[sp].[moe](G)p.[moe]([m5C])p.[moe](T)[sp].[moe](G)}$$$$ (last 3' nucleoside missing)”, the 3 h FOB score was determined as 3.5 score 0-7.

“RNA1{[moe](A)[sp].[moe](A)p.[moe](A)p.[moe]([m5C])p.[moe](G)p.[moe]([m5C])p.d(A)[sp].d(A)[sp].d(T)[sp].d(G)[sp].d(T)[sp].d(A)[sp].d(T)[sp].d([m5C])[sp].d(A)[sp].d(G)[sp].[moe](G)p.[moe]([m5C])[sp].[moe](A)}$$$$ (last 3' nucleoside missing)”: the 3 h FOB score turned out to be 3 score 0-7.

As to “RNA1{[moe]([m5C])[sp].[moe](T)p.[moe](T)p.[moe](A)p.[moe](T)p.d(G)[sp].d(T)[sp].d(A)[sp].d(G)[sp].d([m5C])[sp].d(T)[sp].d([m5C])[sp].d(A)[sp].d(G)[sp].d([m5C])[sp].[moe](T)p.[moe]([m5C])p.[moe](A)[sp].[moe](A)}$$$$ (last 3' nucleoside missing)”, the 3 h FOB score is 2 score 0-7.

On to “RNA1{[moe](G)[sp].[moe](G)p.[moe](A)p.[moe](A)p.[moe](G)p.d(G)[sp].d(A)[sp].d(A)[sp].d(A)[sp].d([m5C])[sp].d(A)[sp].d([m5C])[sp].d(A)[sp].d([m5C])[sp].d(A)[sp].[moe](T)p.[moe](A)p.[moe](A)[sp].[moe](T)}$$$$ (last 3' nucleoside missing)”, for which the 3 h FOB score stood at 0.5 score 0-7.

In turn, “RNA1{[moe]([m5C])[sp].[moe](T)p.[moe](T)p.[moe](T)p.[moe]([m5C])p.d(A)[sp].d(T)[sp].d([m5C])[sp].d(A)[sp].d(G)[sp].d(T)[sp].d(T)[sp].d(A)[sp].d(G)[sp].d(T)[sp].[moe]([m5C])p.[moe](A)p.[moe](G)[sp].[moe](G)}$$$$ (last 3' nucleoside missing)” yielded a 3 h FOB score of 3.5 score 0-7.

In turn, “RNA1{[moe](G)[sp].[moe](T)p.[moe]([m5C])p.[moe](A)p.[moe](T)p.[moe]([m5C])[sp].d(T)[sp].d([m5C])[sp].d(G)[sp].d(G)[sp].d(G)[sp].d(T)[sp].d(A)[sp].d(T)[sp].[moe](A)p.[moe](T)[sp].[moe](A)}$$$$ (last 3' nucleoside missing)” displayed a 3 h FOB score of 4.7 score 0-7.

“RNA1{[moe]([m5C])[sp].[moe](T)p.[moe](G)p.[moe](A)p.[moe](T)p.[moe]([m5C])p.d(A)[sp].d([m5C])[sp].d(A)[sp].d(T)[sp].d(T)[sp].d(A)[sp].d([m5C])[sp].d([m5C])[sp].d([m5C])[sp].d(A)[sp].[moe](T)p.[moe]([m5C])[sp].[moe]([m5C])}$$$$ (last 3' nucleoside missing)” had a 3 h FOB score of 0 score 0-7.

For “RNA1{[moe](G)[sp].[moe](A)p.[moe](G)p.[moe]([m5C])[sp].d(T)[sp].d(A)[sp].d(T)[sp].d([m5C])[sp].d(T)[sp].d(G)[sp].d(T)[sp].d(A)[sp].[moe]([m5C])p.[moe](A)p.[moe](A)p.[moe](A)[sp].[moe](A)}$$$$ (last 3' nucleoside missing)”, the 3 h FOB score stood at 3.3 score 0-7.

Regarding “RNA1{[moe]([m5C])[sp].[moe](A)p.[moe](G)p.[moe](T)p.[moe](T)p.d(G)[sp].d(T)[sp].d(G)[sp].d(T)[sp].d(A)[sp].d(T)[sp].d(T)[sp].d(G)[sp].d(A)[sp].d([m5C])[sp].[moe](T)p.[moe](A)p.[moe](A)[sp].[moe](G)}$$$$ (last 3' nucleoside missing)”, the 3 h FOB score was determined as 4.8 score 0-7.

With “RNA1{[moe](T)[sp].[moe](A)p.[moe](G)p.[moe](T)p.[moe]([m5C])p.d(T)[sp].d(A)[sp].d(A)[sp].d(G)[sp].d(G)[sp].d([m5C])[sp].d(A)[sp].d(G)[sp].d(T)[sp].d([m5C])[sp].[moe](A)p.[moe](G)p.[moe](G)[sp].[moe](G)}$$$$ (last 3' nucleoside missing)”, the 3 h FOB score came to 6 score 0-7.

Substance “RNA1{[moe](T)[sp].[moe](T)p.[moe]([m5C])p.[moe](A)p.[moe](T)p.d([m5C])[sp].d(A)[sp].d(G)[sp].d(T)[sp].d(T)[sp].d(A)[sp].d(G)[sp].d(T)[sp].d([m5C])[sp].d(A)[sp].[moe](G)p.[moe](G)p.[moe](T)[sp].[moe](T)}$$$$ (last 3' nucleoside missing)” had a 3 h FOB score of 4 score 0-7.

On to “RNA1{[moe](T)[sp].[moe](G)p.[moe](A)p.[moe](T)p.[moe]([m5C])p.d(T)[sp].d(A)[sp].d(T)[sp].d(T)[sp].d(A)[sp].d(T)[sp].d(G)[sp].d(A)[sp].d(G)[sp].d(G)[sp].[moe](G)p.[moe]([m5C])p.[moe](A)[sp].[moe](T)}$$$$ (last 3' nucleoside missing)”, for which the 3 h FOB score came out at 2 score 0-7.

“RNA1{[moe]([m5C])[sp].[moe](T)p.[moe](T)p.[moe]([m5C])[sp].d(A)[sp].d([m5C])[sp].d([m5C])[sp].d(A)[sp].d(T)[sp].d(T)[sp].d(T)[sp].d(T)[sp].[moe](G)p.[moe](A)p.[moe]([m5C])p.[moe]([m5C])[sp].[moe](T)}$$$$ (last 3' nucleoside missing)” had a 3 h FOB score of 0 score 0-7.

Substance “RNA1{[moe](T)[sp].[moe](A)p.[moe](G)p.[moe](G)p.[moe](G)p.d(T)[sp].d(G)[sp].d(G)[sp].d(T)[sp].d(T)[sp].d(G)[sp].d(G)[sp].d(T)[sp].d(T)[sp].d([m5C])[sp].[moe](A)p.[moe](A)p.[moe](A)[sp].[moe](A)}$$$$ (last 3' nucleoside missing)” returned a 3 h FOB score of 5.7 score 0-7.

“RNA1{[moe](T)[sp].[moe](T)p.[moe](T)p.[moe](A)p.[moe](G)p.d(G)[sp].d(T)[sp].d([m5C])[sp].d(A)[sp].d(A)[sp].d([m5C])[sp].d([m5C])[sp].d(A)[sp].d(A)[sp].d(T)[sp].[moe](T)p.[moe](T)p.[moe](G)[sp].[moe]([m5C])}$$$$ (last 3' nucleoside missing)” showed a 3 h FOB score of 0 score 0-7.

For the substance “RNA1{[moe](A)[sp].[moe](T)p.[moe]([m5C])p.[moe](A)p.[moe]([m5C])p.d(A)[sp].d(T)[sp].d(T)[sp].d(A)[sp].d([m5C])[sp].d([m5C])[sp].d([m5C])[sp].d(A)[sp].d(T)[sp].d([m5C])[sp].[moe]([m5C])p.[moe](G)p.[moe](T)[sp].[moe](T)}$$$$ (last 3' nucleoside missing)”, the 3 h FOB score is 0 score 0-7.

Substance “RNA1{[moe](A)[sp].[moe](A)p.[moe](G)p.[moe](T)p.[moe]([m5C])p.d(A)[sp].d(T)[sp].d(T)[sp].d([m5C])[sp].d([m5C])[sp].d([m5C])[sp].d([m5C])[sp].d(A)[sp].d([m5C])[sp].d([m5C])[sp].[moe]([m5C])p.[moe](T)p.[moe](G)[sp].[moe](G)}$$$$ (last 3' nucleoside missing)” yielded a 3 h FOB score of 1.8 score 0-7.

Substance “RNA1{[moe](A)[sp].[moe](G)p.[moe](G)p.[moe]([m5C])p.[moe](A)p.d(T)[sp].d(T)[sp].d(T)[sp].d(G)[sp].d(G)[sp].d(A)[sp].d(G)[sp].d([m5C])[sp].d(A)[sp].d(T)[sp].[moe](T)p.[moe]([m5C])p.[moe](G)[sp].[moe](G)}$$$$ (last 3' nucleoside missing)” showed a 3 h FOB score of 6.2 score 0-7.

On to “RNA1{[moe](G)[sp].[moe](G)p.[moe](T)p.[moe]([m5C])p.[moe](A)p.d(G)[sp].d(A)[sp].d(T)[sp].d(T)[sp].d([m5C])[sp].d([m5C])[sp].d(T)[sp].d(A)[sp].d(A)[sp].d(A)[sp].[moe](T)p.[moe](A)p.[moe]([m5C])[sp].[moe](G)}$$$$ (last 3' nucleoside missing)”, for which the 3 h FOB score came out at 1 score 0-7.

As for “RNA1{[moe](A)[sp].[moe](G)p.[moe]([m5C])p.[moe]([m5C])p.d(A)[sp].d(G)[sp].d(G)[sp].d(T)[sp].d(G)[sp].d(T)[sp].d([m5C])[sp].d(T)[sp].d(T)[sp].d(A)[sp].[moe](T)p.[moe](A)p.[moe](T)p.[moe]([m5C])[sp].[moe](T)}$$$$ (last 3' nucleoside missing)”, the 3 h FOB score stood at 4 score 0-7.
